Literature values as cited in US11717498B2, “Methods of treatment using amphetamine controlled release, prodrug, and abuse deterrent dosage forms” (CHEMAPOTHECA, LLC, priority 2013, dated 2023).

Settings: l-form versus d-form

Structure (SMILES): CC(C)NC[C@H](O)COc1cccc2ccccc12 [l-form of propranolol, propranolol]
- potency relative to the d-form: about 100 times
